Results: patent US8426447B2, “Spiro-tricyclic ring compounds as beta-secretase modulators and methods of use” (Amgen Inc., priority 2008, dated 2013)
Blank lines part the entries; values can stand above or below the compound they belong to.

Key:
BACE1 [1] = target: T1, BACE1 (Homo sapiens, UniProt P56817); assay: In Vitro BACE Cell-based Assay (HEK cell assay): Aβ40 in conditioned medium of cells stably expressing Amyloid Precursor Protein, sandwich ELISA; conditions: read-out: HEK cell assay
Procedure, shortened: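 APP-expressing cells were cultured 24 h in DMEM/10% FBS, then treated 24 h with compounds in 10-point dose response (top 100 μM or 10 μM; 0.1% DMSO final). Secreted Aβ40 was quantified by sandwich ELISA (pAb40 capture, biotinylated 6E10 detection, Europium TRF); IC50 from percent inhibition versus concentration.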

BACE1 [2] = target: T1, BACE1; assay: In Vitro Enzymatic BACE FRET (Fluorescence Resonance Energy Transfer) Assay; format: biochemical; conditions: read-out: BACE1 FRET assay
Procedure, shortened: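 Buffer 0.05 M acetate pH 4.2 with 10% DMSO final and 100 uM genapol; reaction started with 50 nM FRET peptide substrate (fluorophore/quencher flanking BACE cleavage site), incubated one hour. Stopped with Tris buffer raising pH to neutrality, then fluorescence read.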

[3] = HEK cell-based assay, Aβ40 in conditioned medium, IC50 class symbols
[4] = in vitro BACE FRET enzyme assay, IC50 class symbols

T1 sequence (P56817 46-501, species assumed): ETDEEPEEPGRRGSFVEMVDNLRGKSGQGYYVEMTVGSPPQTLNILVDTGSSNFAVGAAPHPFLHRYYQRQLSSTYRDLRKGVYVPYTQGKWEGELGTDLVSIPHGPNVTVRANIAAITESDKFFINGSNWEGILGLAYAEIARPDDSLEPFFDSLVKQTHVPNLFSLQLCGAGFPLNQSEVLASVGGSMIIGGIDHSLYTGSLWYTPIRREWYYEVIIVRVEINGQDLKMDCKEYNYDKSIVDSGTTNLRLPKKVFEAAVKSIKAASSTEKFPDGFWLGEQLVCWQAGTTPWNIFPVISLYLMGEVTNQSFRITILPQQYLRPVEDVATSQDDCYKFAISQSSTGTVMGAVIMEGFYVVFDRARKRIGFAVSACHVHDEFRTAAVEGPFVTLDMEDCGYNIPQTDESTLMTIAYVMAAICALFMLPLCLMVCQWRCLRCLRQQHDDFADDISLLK

SMILES: CC(C)(C#N)COc1ccc2c(c1)[C@]1(COC(N)=N1)c1cc(-c3cccnc3)ccc1O2 [Example 134, (S)-3-(2-amino-2′-(pyridin-3-yl)-5H-spiro[oxazole-4,9′-xanthene]-7′-yloxy)-2,2-dimethylpropanenitrile]
IC50 (BACE1 [1]; Table III, IC50's in uM ranges): < 0.1 µM
IC50 (BACE1 [2]; Table III, IC50's in uM ranges): < 0.1 µM

SMILES: COC(C)(C)COc1cnc2c(c1)[C@@]1(COC(N)=N1)c1cc(-c3ccccc3)ccc1O2 [compound 349]
IC50 (BACE1 [1]; [3]): 1 to 5 µM
IC50 (BACE1 [2]; [4]): 0.1 to 1 µM

SMILES: COC(C)(C)COc1ccc2c(c1)[C@]1(COC(N)=N1)c1cc(C#CC3CC3)ccc1O2 [compound 982]
IC50 (BACE1 [1]): 0.1 to 1 µM
IC50 (BACE1 [2]): < 0.1 µM

SMILES: COC(=O)/C=C/c1ccc2c(c1)[C@@]1(COC(N)=N1)c1cc(-c3cncnc3)ccc1O2 [compound 946]
IC50 (BACE1 [1]): 0.1 to 1 µM
IC50 (BACE1 [2]): 0.1 to 1 µM

SMILES: COc1ncc(-c2ccc3c(c2)[C@]2(COC(N)=N2)c2cc(OCC(C)(C)C)ccc2O3)cn1 [compound 188]
IC50 (BACE1 [1]; Table III, IC50's in uM ranges): 1 to 5 µM
IC50 (BACE1 [2]; Table III, IC50's in uM ranges): 0.1 to 1 µM

SMILES: CC(C)(O)C#Cc1cnc2c(c1)[C@]1(COC(N)=N1)c1cc(-c3cncnc3)ccc1O2 [compound 823]
IC50 (BACE1 [1]; Table IV, class symbols): < 0.1 µM
IC50 (BACE1 [2]; Table IV, class symbols): < 0.1 µM

SMILES: COc1ccc2c(c1)C1(COC(N)=N1)c1cc(-c3cccnc3F)ccc1O2 (stereo not shown) [Example 16, 2′-(2-fluoro-3-pyridinyl)-7′-methoxyspiro[1,3-oxazole-4,9′-xanthen]-2-amine]
IC50 (BACE1 [1]; Table 1, Aβ40, 24 h incubation): 1 to 5 µM
IC50 (BACE1 [2]; Table 1): 1 to 5 µM

SMILES: CC1(C)C[C@H](c2cc3c(cn2)Oc2ccc(-c4cccnc4F)cc2[C@@]32COC(N)=N2)CCO1 [compound 432]
IC50 (BACE1 [1]; HEK cells): < 0.1 µM
IC50 (BACE1 [2]): < 0.1 µM

SMILES: CC1(COc2cc3c(cc2F)Oc2ccc(-c4cncnc4)cc2[C@@]32COC(N)=N2)COC1 [compound 712]
IC50 (BACE1 [1]): < 0.1 µM
IC50 (BACE1 [2]): < 0.1 µM

SMILES: NC1=N[C@]2(CO1)c1cc(-c3cccnc3)ccc1Oc1ncc(-c3cccnc3)cc12 [compound 157]
IC50 (BACE1 [1]; Table III, IC50's in uM ranges): < 0.1 µM
IC50 (BACE1 [2]; Table III, IC50's in uM ranges): < 0.1 µM

SMILES: NC1=N[C@]2(CO1)c1cc(Br)ccc1Oc1ncccc12 [compound 600]
IC50 (BACE1 [1]; Table IV, class symbols): > 5 µM
IC50 (BACE1 [2]; Table IV, class symbols): > 5 µM

SMILES: CC(C)(C)OCCOc1ccc2c(c1)[C@]1(COC(N)=N1)c1cc(-c3cccnc3)ccc1O2 [compound 159]
IC50 (BACE1 [1]; Table III, IC50's in uM ranges): 0.1 to 1 µM
IC50 (BACE1 [2]; Table III, IC50's in uM ranges): < 0.1 µM

SMILES: Cn1cc(-c2ccc3c(c2)[C@]2(COC(N)=N2)c2cc(-c4cccnc4)ccc2O3)cn1 [compound 710]
IC50 (BACE1 [1]): < 0.1 µM
IC50 (BACE1 [2]): < 0.1 µM

SMILES: NC1=N[C@@]2(CO1)c1cc(-c3cncnc3)ccc1Oc1cccnc12 [compound 525]
IC50 (BACE1 [1]; HEK cells): > 5 µM
IC50 (BACE1 [2]): > 5 µM

SMILES: CC(=O)COc1ccc2c(c1)[C@@]1(COC(N)=N1)c1cc(-c3cccnc3)cnc1O2 [compound 864]
IC50 (BACE1 [1]; Table IV, class symbols): 0.1 to 1 µM
IC50 (BACE1 [2]; Table IV, class symbols): 0.1 to 1 µM

More lines, now with the values ahead:

IC50 (BACE1 [1]; [3]): 1 to 5 µM
IC50 (BACE1 [2]; [4]): 0.1 to 1 µM
SMILES: NC1=N[C@@]2(CO1)c1cc(-c3cccnc3)ccc1Oc1ccc(Cl)nc12 [compound 393]

IC50 (BACE1 [1]; HEK cells): < 0.1 µM
IC50 (BACE1 [2]): < 0.1 µM
SMILES: NC1=N[C@@]2(CO1)c1cc(-c3cccnc3)ccc1Oc1cnc(N3CCCC3)cc12 [compound 493]

IC50 (BACE1 [1]): 0.1 to 1 µM
IC50 (BACE1 [2]): < 0.1 µM
SMILES: NC1=N[C@@]2(CO1)c1cc(-c3cccnc3)ccc1Oc1cnc(CCC3CC3)cc12 [compound 695]

IC50 (BACE1 [1]; Table 1, Aβ40, 24 h incubation): 1 to 5 µM
IC50 (BACE1 [2]; Table 1): > 5 µM
SMILES: Cc1ccc2c(c1)Oc1ccc(-c3cccc(OC(F)(F)F)c3)cc1[C@]21COC(N)=N1 [Example 24, (4S)-6′-methyl-2′-(3-(trifluoromethoxy)phenyl)spiro[1,3-oxazole-4,9′-xanthen]-2-amine]

IC50 (BACE1 [1]): > 5 µM
IC50 (BACE1 [2]): 0.1 to 1 µM
SMILES: CC(C)(C)COc1ccc2c(c1)[C@]1(COC(N)=N1)c1cc(C3CC4CCC3C4)ccc1O2 (stereo partly shown) [compound 700]

IC50 (BACE1 [1]; Table II, Aβ40, 24 h incubation): 0.1 to 1 µM
IC50 (BACE1 [2]; Table II): < 0.1 µM
SMILES: CC(C)(C)COc1ccc2c(c1)[C@]1(COC(N)=N1)c1cc(-c3cc(Cl)ccc3F)cnc1O2 [Example 91, (5R)-3-(5-chloro-2-fluorophenyl)-7-(2,2-dimethylpropoxy)spiro[chromeno[2,3-b]pyridine-5,4′-[1,3]oxazol]-2′-amine]

IC50 (BACE1 [1]; Table IV, class symbols): 1 to 5 µM
IC50 (BACE1 [2]; Table IV, class symbols): 1 to 5 µM
SMILES: CC(C)(C)COc1ccc2c(c1)[C@]1(COC(N)=N1)c1cc(-c3ccc(S(C)(=O)=O)cc3)ccc1O2 [compound 910]

IC50 (BACE1 [1]; Table 1, Aβ40, 24 h incubation): 1 to 5 µM
IC50 (BACE1 [2]; Table 1): > 5 µM
SMILES: COc1ccc2c(c1)C1(COC(N)=N1)c1cc(-c3ccc(OC(F)(F)F)cc3)ccc1O2 (stereo not shown) [Example 27, 2′-methoxy-7′-(4-(trifluoromethoxy)phenyl)spiro[1,3-oxazole-4,9′-xanthen]-2-amine]

IC50 (BACE1 [1]): < 0.1 µM
IC50 (BACE1 [2]): < 0.1 µM
SMILES: NC1=N[C@@]2(CO1)c1cc(-c3cccnc3)ccc1Oc1ccc(-c3cscn3)cc12 [compound 671]

IC50 (BACE1 [1]; [3]): < 0.1 µM
IC50 (BACE1 [2]; [4]): < 0.1 µM
SMILES: Cc1cnc(F)c(-c2ccc3c(c2)[C@@]2(COC(N)=N2)c2cc(C4CCOCC4)ncc2O3)c1 [compound 332]

IC50 (BACE1 [1]; Table III, IC50's in uM ranges): 1 to 5 µM
IC50 (BACE1 [2]; Table III, IC50's in uM ranges): 0.1 to 1 µM
SMILES: CC(C)(C)C#Cc1cnc2c(c1)[C@@]1(COC(N)=N1)c1cc(-c3cccnc3)ccc1O2 [185a]
